# Reference: PMC7421900, “Structural, in silico, and functional analysis of a Disabled-2-derived peptide for recognition of sulfatides” (Scientific Reports, 2020)
# Where a chain is given by its changes, count along the chain named.
# Key:
# Dab2 SBP [1] = biological target: T1, Dab2 SBP (Homo sapiens, UniProt P98082, Y38A); test: SPR, L1 sensorchip, sulfatide liposomes captured; assay type: binding; settings: apparent KD; peptide 1-80 µM over 100-nm DPPC:DPPE:cholesterol:sulfatide (1:1:1:4) liposomes; pH 7.4, 100 mM NaCl, room temperature; brain sulfatides of mixed acyl chains
# T1 construct: pGEX6P1; vector residues GPLGS remain at N-terminus of cleaved peptide
# T1 sequence (P98082 24-58 Y38A): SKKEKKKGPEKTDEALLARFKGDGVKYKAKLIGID
# Dab2 SBP [2] = biological target: T2, Dab2 SBP (Homo sapiens, UniProt P98082); test: SPR, L1 sensorchip, sulfatide liposomes captured; assay type: binding; settings: apparent KD; peptide 1-80 µM over 100-nm DPPC:DPPE:cholesterol:sulfatide (1:1:1:4) liposomes; pH 7.4, 100 mM NaCl, room temperature; brain sulfatides of mixed acyl chains
# T2 construct: pGEX6P1; vector residues GPLGS remain at N-terminus of cleaved peptide
# T2 sequence (P98082 24-58): T1 sequence (P98082 24-58 Y38A) with A15Y
substance,measurement,setting,value
sulfatide,Kd,Dab2 SBP [1],77 ± 6.6 µM
same,Kd,Dab2 SBP [2],49.8 ± 5.4 µM
